Patent US4322339A, “Pharmacologically active peptides” (Eli Lilly and Company, priority 1980, dated 1982)
pIC50: −log10 of the molar value.

Key:
enkephalin (δ) receptor = target: T1, enkephalin (δ) receptor (Mus musculus, UniProt P32300); experiment: mouse vas deferens assay; format: tissue-based; conditions: concentration causing depression of 50% of the electrically evoked contraction; field stimulation 0.15 Hz, 1 msec., 40 V; 37° C.
T1 construct: from tissue; host or cells: isolated mouse vas deferens (Cox mice, 30-40 g)
Experimental: In the mouse vas deferens test, single mouse vas deferens from mature mice (Cox, 30-40 g.) are suspended in 3 ml. of modified Kreb's solution aerated with 95% O2 -5% CO2 and maintained at 37° C. The twitch induced by field stimulation (0.15 Hz, 1 msec., 40 V) is recorded on a polygraph via an isometric transducer. The test compound is added to the bath in 20 to 30 μl. aliquots. A dose-response curve is constructed by cumulative addition of appropriate amounts of the compound to the bath. Comparison of relative agonist potency at the δ receptor is made on the basis of IC50 values (concentration causing depression of 50% of the electrically evoked contraction).

mouse (Cox Standard) = experiment: mouse hot plate test (mouse jump); format: in vivo; conditions: subcutaneous injection, hot plate 52° C., 15 minutes after administration

T1 sequence (P32300 whole entry): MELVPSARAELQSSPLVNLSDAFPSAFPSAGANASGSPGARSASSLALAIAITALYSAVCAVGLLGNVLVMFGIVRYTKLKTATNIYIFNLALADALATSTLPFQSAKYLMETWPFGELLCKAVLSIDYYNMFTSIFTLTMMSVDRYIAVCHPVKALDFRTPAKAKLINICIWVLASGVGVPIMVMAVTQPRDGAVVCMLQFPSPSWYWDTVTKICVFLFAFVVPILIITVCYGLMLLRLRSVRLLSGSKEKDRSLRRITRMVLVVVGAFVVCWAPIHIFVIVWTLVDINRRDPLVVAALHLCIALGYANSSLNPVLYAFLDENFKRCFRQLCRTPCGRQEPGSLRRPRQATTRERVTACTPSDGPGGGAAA

| SMILES | pIC50 (enkephalin (δ) receptor) | Mouse Jump ED50 (mouse (Cox Standard); Cox Standard mice) | Mouse Jump ED50 (mouse (Cox Standard); run using Harlan ND4 mice) |
| --- | --- | --- | --- |
| CSCC[C@@H](C(N)=O)N(C)C(=O)[C@H](Cc1cccc(C(F)(F)F)c1)NC(=O)CNC(=O)[C@@H](C)NC(=O)[C@@H](N)Cc1ccc(O)cc1 [CF3, L-Tyrosyl-D-alanyl-glycyl-L-m-trifluoro-methylphenylalanyl-L-(N^α-methyl)methioninamide] | 8.75 | 0.33 mg/kg |  |
| CSCC[C@@H](C(N)=O)N(C)C(=O)[C@H](Cc1cccc(Cl)c1)NC(=O)CNC(=O)[C@@H](C)NC(=O)[C@@H](N)Cc1ccc(O)cc1 [Cl, L-Tyrosyl-D-alanyl-glycyl-L-m-chlorophenylalanyl-L-(N^α -methyl)methioninamide] | 9.15 | 0.11 mg/kg |  |
| CSCC[C@@H](C(N)=O)N(C)C(=O)[C@H](Cc1ccccc1)NC(=O)CNC(=O)[C@@H](C)NC(=O)[C@@H](N)Cc1ccc(O)cc1 [H, reference compound] | 7.91 | 0.36 mg/kg |  |
| CSCC[C@@H](C(N)=O)N(C)C(=O)[C@H](Cc1cccc(C)c1)NC(=O)CNC(=O)[C@@H](C)NC(=O)[C@@H](N)Cc1ccc(O)cc1 [CH3, L-Tyrosyl-D-alanyl-glycyl-L-m-methylphenylalanyl-L-(N^α -methyl)methioninamide] | 8.56 | 0.33 mg/kg |  |
| COc1cccc(C[C@H](NC(=O)CNC(=O)[C@@H](C)NC(=O)[C@@H](N)Cc2ccc(O)cc2)C(=O)N(C)[C@@H](CCSC)C(N)=O)c1 [OMe, L-Tyrosyl-D-alanyl-glycyl-L-m-methoxyphenylalanyl-L-(N^α -methyl)methioninamide] | 8.53 |  | 0.15 mg/kg |
| CSCC[C@@H](C(N)=O)N(C)C(=O)[C@H](Cc1cccc(Br)c1)NC(=O)CNC(=O)[C@@H](C)NC(=O)[C@@H](N)Cc1ccc(O)cc1 [Br, L-Tyrosyl-D-alanyl-glycyl-L-m-bromophenylalanyl-L-(N^α -methyl)methioninamide] | 9.31 | 0.36 mg/kg |  |
| CSCC[C@@H](C(N)=O)N(C)C(=O)[C@H](Cc1cccc(I)c1)NC(=O)CNC(=O)[C@@H](C)NC(=O)[C@@H](N)Cc1ccc(O)cc1 [I, H-L-Tyr-D-Ala-Gly-L-Phe(I)-L-(N-Me)Met-NH2] | 8.68 |  |  |
